Experimental data reported in patent publication US11814392B2, “Chromenopyridine-based compounds and methods of making and use thereof” (Rosalind Franklin University of Medicine and Science, priority 2020, dated 2023).

How the values were obtained:
PMCT = molecular target: T1, PMCT (Homo sapiens, UniProt Q86YT5); assay: PMCT inhibition, citrate transport assay of whole HEK293T cells; format: cell-based
T1 construct: expressed in transfected cells; host or cells: HEK293T cells transfected with pcDNA3.1(+)-SLC13A5 using PEI

SN12C = assay: NCI 60 five-dose screening, SN12C; format: cell-based, human; conditions: SN12C (Renal Cancer), 48 h
MDA-MB-468 = assay: NCI 60 five-dose screening, MDA-MB-468; format: cell-based, human
SR = assay: NCI 60 five-dose screening, SR; conditions: Homo sapiens, 48 h
Method: (§1) The National Cancer Institute's Developmental Therapeutic preclinical 60 human cancer cell lines were used for an in vitro screen. […] The one-dose and five-dose experiments were conducted according to standard NCI protocols.
(§2) The human tumor cell lines of the cancer screening panel are grown in RPMI 1640 medium containing 5% fetal bovine serum and 2 mM L-glutamine. For a typical screening experiment, cells are inoculated into 96 well microtiter plates in 100 μL at plating densities ranging from 5,000 to 40,000 cells/well depending on the doubling time of individual cell lines. […]
(§3) Following drug addition, the plates are incubated for an additional 48 h at 37° C., 5% CO2, 95% air, and 100% relative humidity. […] Bound stain is subsequently solubilized with 10 mM trizma base, and the absorbance is read on an automated plate reader at a wavelength of 515 nm. […] Using the seven absorbance measurements [time zero, (Tz), control growth, (C), and test growth in the presence of drug at the five concentration levels (Ti)], the percentage growth is calculated at each of the drug concentrations levels. Percentage growth inhibition is calculated as: [(Ti−Tz)/(C−Tz)]×100 for concentrations for which Ti>/=Tz [(Ti−Tz)/Tz]×100 for concentrations for which Ti<Tz.
(§4) Three dose response parameters are calculated for each experimental agent. […]

KM12 = assay: NCI 60 five-dose screening, KM12
Method: as §1
(§5) The human tumor cell lines of the cancer screening panel are grown in RPMI 1640 medium containing 5% fetal bovine serum and 2 mM L-glutamine. For a typical screening experiment, cells are inoculated into 96 well microtiter plates in 100 μL at plating densities ranging from 5,000 to 40,000 cells/well depending on the doubling time of individual cell lines. After cell inoculation, the microtiter plates are incubated at 37° C., 5% CO2, 95% air and 100% relative humidity for 24 h prior to addition of experimental drugs.
(§6) After 24 h, two plates of each cell line are fixed in situ with TCA, to represent a measurement of the cell population for each cell line at the time of drug addition (Tz). […]
as §3
(§7) Three dose response parameters are calculated for each experimental agent. […] The drug concentration resulting in total growth inhibition (TGI) is calculated from Ti=Tz. […] Values are calculated for each of these three parameters if the level of activity is reached; however, if the effect is not reached or is exceeded, the value for that parameter is expressed as greater or less than the maximum or minimum concentration tested.

ACHN = assay: NCI 60 five-dose screening, ACHN; conditions: 48 h
Method: (§8) The one-dose and five-dose experiments were conducted according to standard NCI protocols.
as §5
(§9) After 24 h, two plates of each cell line are fixed in situ with TCA, to represent a measurement of the cell population for each cell line at the time of drug addition (Tz). Experimental drugs are solubilized in dimethyl sulfoxide at 400-fold the desired final maximum test concentration and stored frozen prior to use. […]
as §3, §7

K-562 = assay: NCI 60 five-dose screening, K-562; conditions: Homo sapiens, K562, 48 h
Method: as §1, §2, §3, §4

UO-31 = assay: NCI 60 five-dose screening, UO-31
Method: as §1, §5, §6, §3, §7

T-47D = assay: NCI 60 five-dose screening, T-47D; conditions: 48 h
Method: as §1, §5, §6, §3, §7

MOLT-4 = assay: NCI 60 five-dose screening, MOLT-4
Method: as §1, §5, §6, §3, §7

HOP-62 = assay: NCI 60 five-dose screening, HOP-62
Method: as §8, §5, §9, §3, §7

HCT-15 = assay: NCI 60 five-dose screening, HCT-15
Method: as §1, §5, §6, §3, §7

SF-268 = assay: NCI 60 five-dose screening, SF-268
Method: as §1, §5, §6, §3, §7

SF-539 = assay: NCI 60 five-dose screening, SF-539
Method: as §1, §5, §6, §3, §7

SNB-75 = assay: NCI 60 five-dose screening, SNB-75
Method: as §1, §5, §6, §3, §7

IGROV1 = assay: NCI 60 five-dose screening, IGROV1
Method: as §1, §5, §6, §3, §7

DU-145 = assay: NCI 60 five-dose screening, DU-145
Method: as §1, §5, §6, §3, §7

BT-549 = assay: NCI 60 five-dose screening, BT-549
Method: as §1, §5, §6, §3, §7

NCI-H23 = assay: NCI 60 five-dose screening, NCI-H23
Method: as §8, §5, §9, §3, §7

CCRF-CEM = assay: NCI 60 five-dose screening, CCRF-CEM; conditions: Homo sapiens, 48 h
Method: as §1, §2, §3, §4

OVCAR-4 = assay: NCI 60 five-dose screening, OVCAR-4
Method: as §1, §5, §6, §3, §7

HCC-2998 = assay: NCI 60 five-dose screening, HCC-2998
Method: as §1, §5, §6, §3, §7

SK-MEL-28 = assay: NCI 60 five-dose screening, SK-MEL-28
Method: as §1, §5, §6, §3, §7

MDA-MB-435 = assay: NCI 60 five-dose screening, MDA-MB-435
Method: as §1, §5, §6, §3, §7

MDA-MB-231/ATCC = assay: NCI 60 five-dose screening, MDA-MB-231/ATCC
Method: as §1, §5, §6, §3, §7

T1 sequence (Q86YT5 whole entry): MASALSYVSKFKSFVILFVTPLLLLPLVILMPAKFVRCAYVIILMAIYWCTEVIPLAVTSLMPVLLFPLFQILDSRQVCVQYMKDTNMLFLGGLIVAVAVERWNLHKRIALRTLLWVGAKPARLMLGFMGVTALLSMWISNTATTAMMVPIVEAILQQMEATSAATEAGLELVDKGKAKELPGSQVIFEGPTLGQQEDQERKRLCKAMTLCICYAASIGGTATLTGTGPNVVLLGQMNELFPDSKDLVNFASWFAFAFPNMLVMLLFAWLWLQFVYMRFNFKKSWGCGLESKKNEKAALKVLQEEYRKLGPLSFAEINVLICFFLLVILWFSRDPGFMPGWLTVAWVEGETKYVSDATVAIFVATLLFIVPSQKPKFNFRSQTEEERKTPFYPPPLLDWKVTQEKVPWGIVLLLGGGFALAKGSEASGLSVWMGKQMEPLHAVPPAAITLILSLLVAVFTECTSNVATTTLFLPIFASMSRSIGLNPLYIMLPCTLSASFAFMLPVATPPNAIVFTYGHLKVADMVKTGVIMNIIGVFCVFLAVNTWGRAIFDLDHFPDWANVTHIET

COc1ccc(SC2c3cc(OC)c(OC)cc3Oc3nc(N)c(C#N)c(N)c32)cc1 (stereo not drawn) [Compound 1, 2,4-diamino-7,8-dimethoxy-5-((4-methoxyphenyl)thio)-5H-chromeno[2,3-b]pyridine-3-carbonitrile]
IC50 (PMCT; HEK293T cells): 9800 nM
dose-dependence of PMCT inhibition (PMCT; HEK293T cells, even at moderate concentrations (FIG. 1)): dose-dependent inhibition
inhibition at 5 µM (PMCT; HEK-293T, read-out: PMCT Inhibition, Inhibitor Concentration 5 μM, HEK293T cells): 50.1%
inhibition at 20 µM (PMCT; HEK-293T, read-out: PMCT Inhibition, Inhibitor Concentration 20 μM, HEK293T cells): 75.6%
inhibition at 40 µM (PMCT; HEK-293T, read-out: PMCT Inhibition, Inhibitor Concentration 40 μM, HEK293T cells): 50.2%
inhibition at 200 µM (PMCT; HEK-293T, read-out: PMCT Inhibition, Inhibitor Concentration 200 μM, HEK293T cells): 32.1%
inhibition at 1000 µM (PMCT; HEK-293T, read-out: PMCT Inhibition, Inhibitor Concentration 1000 μM, HEK293T cells): 62.8%
GI50 (SN12C; Homo sapiens): 1060 nM
TGI (SN12C): 2490 nM
CC50 (MDA-MB-468; Homo sapiens, MDA-MB-468, 48 h, read-out: LC50): 5620 nM
GI50 (MDA-MB-468; Homo sapiens, MDA-MB-468 (Breast Cancer), five-dose, 48 h): 320 nM
TGI (MDA-MB-468; MDA-MB-468 (Breast Cancer), five-dose, 48 h): 1530 nM
GI50 (SR): 270 nM
CC50 (SR; read-out: LC50): > 100000 nM
GI50 (KM12; Homo sapiens, KM12, 48 h): 1530 nM
CC50 (KM12; Homo sapiens, KM12, 48 h, read-out: LC50): 6060 nM
TGI (KM12; KM12 (Colon Cancer), five-dose, 48 h): 3050 nM
TGI (ACHN; ACHN (Renal Cancer), five-dose): 3120 nM
GI50 (ACHN; Homo sapiens, ACHN): 1740 nM
CC50 (ACHN; Homo sapiens, ACHN, read-out: LC50): 5580 nM
GI50 (K-562): 440 nM
CC50 (K-562; read-out: LC50): > 100000 nM
GI50 (UO-31; Homo sapiens, UO-31, 48 h): 1340 nM
CC50 (UO-31; Homo sapiens, UO-31, 48 h, read-out: LC50): 5110 nM
TGI (UO-31; UO-31 (Renal Cancer), five-dose, 48 h): 2610 nM
GI50 (T-47D; Homo sapiens, T47D): 1300 nM
CC50 (T-47D; Homo sapiens, T47D, read-out: LC50): 8430 nM
TGI (T-47D; T-47D (Breast Cancer), five-dose): 3310 nM
GI50 (MOLT-4; Homo sapiens, MOLT-4, 48 h): 310 nM
CC50 (MOLT-4; Homo sapiens, MOLT-4, 48 h, read-out: LC50): > 100000 nM
TGI (MOLT-4; MOLT-4 (Leukemia), five-dose, 48 h): 1600 nM
TGI (HOP-62; HOP-62 (Non-small cell Lung), five-dose, 48 h): 3090 nM
GI50 (HOP-62; Homo sapiens, HOP-62, 48 h): 1700 nM
CC50 (HOP-62; Homo sapiens, HOP-62, 48 h, read-out: LC50): 5610 nM
TGI (HCT-15; HCT-15 (Colon Cancer), five-dose, 48 h): 2230 nM
GI50 (HCT-15; Homo sapiens, HCT-15, 48 h): 970 nM
CC50 (HCT-15; Homo sapiens, HCT-15, 48 h, read-out: LC50): 5020 nM
GI50 (SF-268; Homo sapiens, SF-268, 48 h): 1550 nM
CC50 (SF-268; Homo sapiens, SF-268, 48 h, read-out: LC50): 6050 nM
TGI (SF-268; SF-268 (CNS Cancer), five-dose, 48 h): 3070 nM
GI50 (SF-539; Homo sapiens, SF-539, 48 h): 1380 nM
CC50 (SF-539; Homo sapiens, SF-539, 48 h, read-out: LC50): 5200 nM
TGI (SF-539; SF-539 (CNS Cancer), five-dose, 48 h): 2680 nM
GI50 (SNB-75; Homo sapiens, SNB-75, 48 h): 1310 nM
CC50 (SNB-75; Homo sapiens, SNB-75, 48 h, read-out: LC50): 5240 nM
TGI (SNB-75; SNB-75 (CNS Cancer), five-dose, 48 h): 2620 nM
GI50 (IGROV1; Homo sapiens, IGROV-1, 48 h): 760 nM
CC50 (IGROV1; Homo sapiens, IGROV-1, 48 h, read-out: LC50): 6420 nM
TGI (IGROV1; IGROV1 (Ovarian Cancer), five-dose, 48 h): 2370 nM
TGI (DU-145; DU-145 (Prostate Cancer), five-dose, 48 h): 3110 nM
GI50 (DU-145; Homo sapiens, DU-145, 48 h): 1730 nM
CC50 (DU-145; Homo sapiens, DU-145, 48 h, read-out: LC50): 5590 nM
TGI (BT-549; BT-549 (Breast Cancer), five-dose, 48 h): 2190 nM
GI50 (BT-549; Homo sapiens, BT-549, 48 h): 1020 nM
CC50 (BT-549; Homo sapiens, BT-549, 48 h, read-out: LC50): 4720 nM
GI50 (NCI-H23; Homo sapiens, NCI-H23, 48 h): 1450 nM
CC50 (NCI-H23; Homo sapiens, NCI-H23, 48 h, read-out: LC50): 6250 nM
TGI (NCI-H23; NCI-H23 (Non-small cell Lung), five-dose, 48 h): 3010 nM
GI50 (CCRF-CEM): 310 nM
CC50 (CCRF-CEM; read-out: LC50): > 100000 nM
GI50 (OVCAR-4; Homo sapiens, OVCAR-4, 48 h): 1330 nM
CC50 (OVCAR-4; Homo sapiens, OVCAR-4, 48 h, read-out: LC50): 5590 nM
TGI (OVCAR-4; OVCAR-4 (Ovarian Cancer), five-dose, 48 h): 2730 nM
TGI (HCC-2998; HCC-2998 (Colon Cancer), five-dose, 48 h): 3120 nM
GI50 (HCC-2998; Homo sapiens, HCC 2998, 48 h): 1720 nM
CC50 (HCC-2998; Homo sapiens, HCC 2998, 48 h, read-out: LC50): 5670 nM
GI50 (SK-MEL-28; Homo sapiens, SK-MEL-28, 48 h): 1470 nM
CC50 (SK-MEL-28; Homo sapiens, SK-MEL-28, 48 h, read-out: LC50): 5780 nM
TGI (SK-MEL-28; SK-MEL-28 (Melanoma), five-dose, 48 h): 2910 nM
GI50 (MDA-MB-435; Homo sapiens, MDA-MB-435, 48 h): 1500 nM
CC50 (MDA-MB-435; Homo sapiens, MDA-MB-435, 48 h, read-out: LC50): 5700 nM
TGI (MDA-MB-435; MDA-MB-435 (Melanoma), five-dose, 48 h): 2920 nM
GI50 (MDA-MB-231/ATCC; Homo sapiens, MDA-MB-231, 48 h): 1430 nM
CC50 (MDA-MB-231/ATCC; Homo sapiens, MDA-MB-231, 48 h, read-out: LC50): 5510 nM
TGI (MDA-MB-231/ATCC; MDA-MB-231/ATCC (Breast Cancer), five-dose, 48 h): 2810 nM
